Experimental data: US6989371B1, “Bombesin analogs for treatment of cancer” (Dabur Research Foundation, priority 1996, dated 2006)
Non-standard residues stand in square brackets, D forms with d. Residues, ends and D or L forms follow the SMILES beside them. *: point of attachment. Aib = CC(C)(N)C(=O)O; Butyryl = CCCC(=O)*

How the values were obtained:
[1] = tested on: A549 (lung); test: MTT cytotoxicity assay, 72 hours (Example 13); type: cell-based, human
Procedure: (§1) The cytotoxic activity of other synthesized bombesin analogs was tested on eight human tumor cell lines namely HT-29, SW620, PTC (all colon), PA-1 (ovary), A549 (lung), HBL100(breast), MOLT-4 (leukemia) and DU145 (prostate). The tumor cells were collected at exponential growth phase and resuspended in medium (1.5×10^6) cells/ml in RPMI 1640 containing 10% FBS). 150 μl of medium was added to the wells of a 96-well tissue culture plate (Nunc, Denmark) followed by 30 μl of cell suspension. The plate was left in incubator (37° C., 5% CO2 overnight. 20 μl of the peptide (10^−7×10^×10M concentration) was added to marked wells of the 96-well plate. Each concentration was plated in cells served as blanks. A total volume of 200 μl was ensured in each well and plate was left in incubator (37° C., 5% CO2). After 72 hours of incubation an MTT assay was performed and percentage cytotoxicity was calculated with respect to control cells. Following tables show the cytotoxicity achieved on various cell lines at different concentrations.

[2] = tested on: DU145 (prostate); test: MTT cytotoxicity assay, 72 hours (Example 13); type: cell-based, human
Procedure: as §1

[3] = tested on: HBL100 (breast); test: MTT cytotoxicity assay, 72 hours (Example 13); type: cell-based, human; conditions: HBL
Procedure: as §1

[4] = tested on: HT-29 (colon); test: MTT cytotoxicity assay, 72 hours (Example 13); type: cell-based, human
Procedure: as §1

[5] = tested on: MOLT-4 (leukemia); test: MTT cytotoxicity assay, 72 hours (Example 13); type: cell-based, human
Procedure: as §1

[6] = tested on: PA-1 (ovary); test: MTT cytotoxicity assay, 72 hours (Example 13); type: cell-based, human
Procedure: as §1

[7] = tested on: PTC (colon); test: MTT cytotoxicity assay, 72 hours (Example 13); type: cell-based, human
Procedure: as §1

[8] = tested on: SW620 (colon); test: MTT cytotoxicity assay, 72 hours (Example 13); type: cell-based, human
Procedure: as §1

[9] = tested on: HBL 100 (Breast); test: MTT cytotoxicity assay, 48 hours (Example 14); type: cell-based, human
Procedure: (§2) The cytotoxic effect of peptide sequences SEQ ID NO: 9, SEQ ID NO: 10, SEQ ID NO: 11 and SEQ ID NO: 12, were studied by MTT assay which is based on the principle of uptake of MTT[3-[4,5-dimethylthiazol-2-yl]-2,5-diphenyl tetrazolium bromide], a tetrazolium salt by the metabolically active cells where it is metabolized by active mitochondria into a blue colored formazan product which can be read spectrophotometrically. Tumor cells KB (oral squamous). HuTu80 (Stomach), PTC and SW620 (colon), U87MG (Glioblastoma), HBL 100. (Breast), HeP2 (laryngeal) and L132 (Lung) were incubated with the peptide analogs for 48 hours at 37° C. in a 96-well culture plate, followed by the addition of 100 μl MTT and further incubation of 1 hour. The formazon crystals formed inside the cells were dissolved with a detergent comprising 10% Sodium dodecyl sulfate and 0.01 N HCl and optical density read on a multiscan ELISA reader. The optical density was directly proportional to the number of proliferating and metabolically active cells.

[10] = tested on: HuTu80 (Stomach); test: MTT cytotoxicity assay, 48 hours (Example 14); type: cell-based, human
Procedure: as §2

[11] = tested on: KB (oral squamous); test: MTT cytotoxicity assay, 48 hours (Example 14); type: cell-based, human
Procedure: as §2

[12] = tested on: PTC (colon); test: MTT cytotoxicity assay, 48 hours (Example 14); type: cell-based, human
Procedure: as §2

[13] = tested on: SW620 (colon); test: MTT cytotoxicity assay, 48 hours (Example 14); type: cell-based, human
Procedure: as §2

[14] = tested on: HeP2 (laryngeal); test: MTT cytotoxicity assay, 48 hours (Example 14); type: cell-based
Procedure: as §2

[15] = tested on: L132 (Lung); test: MTT cytotoxicity assay, 48 hours (Example 14); type: cell-based
Procedure: as §2

[16] = tested on: U87MG (Glioblastoma); test: MTT cytotoxicity assay, 48 hours (Example 14); type: cell-based
Procedure: as §2

Q: What does the source list for `CC(C)C[C@H](NC(=O)[C@H](Cc1c[nH]cn1)NC(=O)CNC(=O)[C@@H](NC(=O)C(C)(C)NC(=O)[C@H](Cc1c[nH]c2ccccc12)NC(=O)[C@H](CCC(N)=O)NC(=O)[C@H](N)Cc1ccccc1)C(C)C)C(N)=O` [SEQ ID: 4, D-Phe-Gln-Trp-Aib-Val-Gly-His-Leu-NH2] (H-[dF]QW[Aib]VGHL-NH2; N-terminus assumed)?
A: Percent Cytotoxicity ([1]; A549, 1 nM): 22.7 ± 2.9%; Percent Cytotoxicity ([1]; A549, 10 nM): 20.6 ± 1.9%; Percent Cytotoxicity ([1]; A549, 100 nM): 20.0 ± 2.2%; Percent Cytotoxicity ([1]; A549, 100 PM): 20.7 ± 4.2%; Percent Cytotoxicity ([2]; DU145, 1 nM): 22.8 ± 4.1%; Percent Cytotoxicity ([2]; DU145, 10 nM): 23.4 ± 3.3%; Percent Cytotoxicity ([2]; DU145, 100 nM): 24.9 ± 3.2%; Percent Cytotoxicity ([2]; DU145, 100 PM): 23.2 ± 3.7%; Percent Cytotoxicity ([3]; 1 nM): 30.6 ± 4.2%; Percent Cytotoxicity ([3]; 10 nM): 33.2 ± 5.2%; Percent Cytotoxicity ([3]; 100 nM): 25.0 ± 3.1%; Percent Cytotoxicity ([3]; 100 PM): 33.0 ± 3.6%; Percent Cytotoxicity ([4]; HT29, 1 nM): 39.6 ± 4.3%; Percent Cytotoxicity ([4]; HT29, 10 nM): 38.9 ± 7.3%; Percent Cytotoxicity ([4]; HT29, 100 nM): 38.6 ± 5.3%; Percent Cytotoxicity ([4]; HT29, 100 PM): 43.3 ± 4.4%; Percent Cytotoxicity ([5]; MOLT4, 1 nM): 19.3 ± 1.8%; Percent Cytotoxicity ([5]; MOLT4, 10 nM): 28.7 ± 4.2%; Percent Cytotoxicity ([5]; MOLT4, 100 nM): 16.2 ± 0.6%; Percent Cytotoxicity ([5]; MOLT4, 100 PM): 28.5 ± 4.8%; Percent Cytotoxicity ([6]; PA-1, 1 nM): 16.2 ± 2.9%; Percent Cytotoxicity ([6]; PA-1, 10 nM): 4.3 ± 0.2%; Percent Cytotoxicity ([6]; PA-1, 100 nM): 2.3 ± 2.9%; Percent Cytotoxicity ([6]; PA-1, 100 PM): 12.6 ± 2.9%; Percent Cytotoxicity ([7]; 1 nM): 8.7 ± 1.5%; Percent Cytotoxicity ([7]; 10 nM): 2.1 ± 0.2%; Percent Cytotoxicity ([7]; 100 nM): 9.8 ± 1.7%; Percent Cytotoxicity ([7]; 100 PM): 14.9 ± 1.1%; Percent Cytotoxicity ([8]; SW620, 1 nM): 27.8 ± 2.8%; Percent Cytotoxicity ([8]; SW620, 10 nM): 23.2 ± 2.0%; Percent Cytotoxicity ([8]; SW620, 100 nM): 34.3 ± 4.2%; Percent Cytotoxicity ([8]; SW620, 100 PM): 30.4 ± 3.2%

Q: Which Percentage cytotoxicity ([9]; HBL100, 10 pM) does the source give for `CCCC(=O)N[C@H](Cc1ccccc1)C(=O)N[C@@H](CCC(N)=O)C(=O)N[C@@H](Cc1c[nH]c2ccccc12)C(=O)N[C@@H](C)C(=O)N[C@H](C(=O)NC(C)(C)C(=O)N[C@@H](Cc1c[nH]cn1)C(=O)N[C@@H](CC(C)C)C(N)=O)C(C)C` [SEQ ID: 11, Butanoyl-D-Phe-Gln-Trp-Ala-Val-Aib-His-Leu-NH2] (Butyryl-[dF]QWAV[Aib]HL-NH2) here?
A: 18.2 ± 1.1%

Q: And the Percentage cytotoxicity ([9]; HBL100, 100 pM)?
A: 15.4 ± 4.1%

Q: And the Percentage cytotoxicity ([9]; HBL100, 1 nM)?
A: 24.3 ± 1.6%

Q: What about the Percentage cytotoxicity ([9]; HBL100, 10 nM) of the same compound?
A: 29.9 ± 0.3%

Q: What about the Percentage cytotoxicity ([9]; HBL100, 100 nM) of the same compound?
A: 22.7 ± 0.5%

Q: What about the Percentage cytotoxicity ([9]; HBL100, 1 μM) of the same compound?
A: 24.5 ± 0.8%

Q: And the Percentage cytotoxicity ([10]; HuTu80, 10 pM)?
A: 17.6 ± 1.6%

Q: What about the Percentage cytotoxicity ([10]; HuTu80, 100 pM) of the same compound?
A: 22.6 ± 3.9%

Q: What about the Percentage cytotoxicity ([10]; HuTu80, 1 nM) of the same compound?
A: 30.5 ± 4.1%

Q: And the Percentage cytotoxicity ([10]; HuTu80, 10 nM)?
A: 27.3 ± 2.7%

Q: What about the Percentage cytotoxicity ([10]; HuTu80, 100 nM) of the same compound?
A: 20.0 ± 3.1%

Q: What about the Percentage cytotoxicity ([10]; HuTu80, 1 μM) of the same compound?
A: 14.2 ± 0.1%

Q: And the Percentage cytotoxicity ([11]; 10 pM)?
A: 21.6 ± 3.7%

Q: What about the Percentage cytotoxicity ([11]; 100 pM) of the same compound?
A: 26.7 ± 5.1%

Q: And the Percentage cytotoxicity ([11]; 1 nM)?
A: 33.1 ± 2.1%

Q: And the Percentage cytotoxicity ([11]; 10 nM)?
A: 31.9 ± 3.1%

Q: What about the Percentage cytotoxicity ([11]; 100 nM) of the same compound?
A: 31.9 ± 2.1%

Q: What about the Percentage cytotoxicity ([11]; 1 μM) of the same compound?
A: 24.2 ± 1.2%

Q: What about the Percentage cytotoxicity ([12]; 10 pM) of the same compound?
A: 19.7 ± 0.6%

Q: What about the Percentage cytotoxicity ([12]; 100 pM) of the same compound?
A: 28.3 ± 0.8%

Q: What about the Percentage cytotoxicity ([12]; 1 nM) of the same compound?
A: 28.5 ± 2.8%

Q: And the Percentage cytotoxicity ([12]; 10 nM)?
A: 25.7 ± 4.1%

Q: What about the Percentage cytotoxicity ([12]; 100 nM) of the same compound?
A: 25.8 ± 2.5%

Q: And the Percentage cytotoxicity ([12]; 1 μM)?
A: 18.6 ± 1.5%

Q: What about the Percentage cytotoxicity ([13]; SW620, 10 pM) of the same compound?
A: 20.4 ± 0.3%

Q: And the Percentage cytotoxicity ([13]; SW620, 100 pM)?
A: 25.9 ± 3.8%

Q: And the Percentage cytotoxicity ([13]; SW620, 1 nM)?
A: 35.1 ± 2.2%

Q: What about the Percentage cytotoxicity ([13]; SW620, 10 nM) of the same compound?
A: 31.5 ± 2.6%

Q: And the Percentage cytotoxicity ([13]; SW620, 100 nM)?
A: 21.0 ± 1.5%

Q: And the Percentage cytotoxicity ([13]; SW620, 1 μM)?
A: 23.7 ± 1.4%

Q: And the Percentage cytotoxicity ([14]; HeP2, 10 pM)?
A: 15.1 ± 0.3%

Q: What about the Percentage cytotoxicity ([14]; HeP2, 100 pM) of the same compound?
A: 20.1 ± 0.0%

Q: And the Percentage cytotoxicity ([14]; HeP2, 1 nM)?
A: 37.1 ± 3.3%

Q: And the Percentage cytotoxicity ([14]; HeP2, 10 nM)?
A: 34.6 ± 2.2%

Q: And the Percentage cytotoxicity ([14]; HeP2, 100 nM)?
A: 23.9 ± 1.1%

Q: And the Percentage cytotoxicity ([14]; HeP2, 1 μM)?
A: 21.9 ± 2.1%

Q: And the Percentage cytotoxicity ([15]; L132, 10 pM)?
A: 0.5 ± 0.0%

Q: What about the Percentage cytotoxicity ([15]; L132, 100 pM) of the same compound?
A: 18.3 ± 0.9%

Q: And the Percentage cytotoxicity ([15]; L132, 1 nM)?
A: 29.4 ± 0.4%

Q: And the Percentage cytotoxicity ([15]; L132, 10 nM)?
A: 30.4 ± 0.4%

Q: And the Percentage cytotoxicity ([15]; L132, 100 nM)?
A: 20.4 ± 1.5%

Q: And the Percentage cytotoxicity ([15]; L132, 1 μM)?
A: 1.4 ± 1.1%

Q: What about the Percentage cytotoxicity ([16]; 10 pM) of the same compound?
A: 21.9 ± 2.1%

Q: What about the Percentage cytotoxicity ([16]; 100 pM) of the same compound?
A: 26.5 ± 2.6%

Q: And the Percentage cytotoxicity ([16]; 1 nM)?
A: 24.2 ± 1.7%

Q: And the Percentage cytotoxicity ([16]; 10 nM)?
A: 20.0 ± 0.0%

Q: What about the Percentage cytotoxicity ([16]; 100 nM) of the same compound?
A: 15.5 ± 0.6%

Q: What about the Percentage cytotoxicity ([16]; 1 μM) of the same compound?
A: 1.0 ± 0.1%
